Test results taken from patent US6156724A, “Uses of didemnins as immunomodulating agents” (priority 1998, dated 2000).
Where two headings read alike, the source gives them in different places. Numbered stars: 1 amine (or outer) side, 2 acyl side, 3 side chain; on linkers, the order of the positions; unused ones are H or OH. Bridge positions count the residues as written; N and C are the ends. Square brackets hold non-standard residues; d marks the D form. Peptide text beside a SMILES is read from it. X1 = CC[C@H](C)[C@@H](N[*:1])[C@@H](O)CC(=O)O[C@H](C(=O)[C@H](C)C(=O)[*:2])C(C)C; NMeY = CN[C@@H](Cc1ccc(O)cc1)C(=O)O; dNMeL = CN[C@H](CC(C)C)C(=O)O; pGlu = O=C1CC[C@@H](C(=O)O)N1; Lac = C[C@H](O)C(=O)O

What was measured:
[1] = system: CB6F1 mice grafted with Balb/c splenocytes; assay: Graft vs host reaction (GVHR) splenomegaly assay; assay type: in vivo; details: for alive day 8 / body weight change day 5 / body weight day 5 (g ± SD) / index (spleen wt. treated/spleen wt. syngenetic injection) / mean group spleen wt. normalized to day 8 body weight: QD 1-7, ip
Protocol: Three representative compounds didemnin M (38), O-pGlu-DB (37), and didemnin B (1)-showing high (37,38) or moderate (1) in vivo immunosuppressive activity were subsequently evaluated in a multidose assay (0.16,0.016, and 0.0016 mg/kg per injection; qd 1-7) for their in vivo immunosuppressive effects on the GVHR splenomegaly assay.
Three didemnins (didemnin B, didemnin M, and pGlu-didemnin B) were evaluated in a modified Simonsen splenomegaly assay. Briefly, an F1 hybrid host animal is grated with immunocompetent spleen cells from the parent strain. The index used to measure the success of the GVHR is splenomegaly (increased spleen weight due to cellular proliferation of grafted lymphocytes). An index>1.3 (graft index) is considered to be a successful graft rejection of the recipient animal. Immunosuppression is considered as a reduction of the graft index.
On day O, CB6F1 female mice, 4 weeks of age, were grated by intraperitoneal (ip) injection of 50×10^5 splenocytes from BALB/c female mice in high-glucose ([…]) Dulbecco's modified Eagles medium. A syngeneic control group (CB6F1 --CB6F1) was similarly prepared and served as the negative control. Grafted mice were divided into treatment groups containing six mice each. Groups were injected ip with test compound (dissolved in vehicle; 1% abs. EtOH in sterile phosphate-buffered saline) at one of three dose levels (0.16, 0.016, and 0.0016 mg/kg per injection) in a multidose assay, cyclophosphamide (200 mg/kg per injection) or vehicle on days 1-7 (qd 1-7). On day 8 all groups were sacrificed, spleens were excised, and a graft index was calculated for each group by the following formula: [formula]

[2] = system: murine splenocytes (Balb/c and C57B1/6); assay: Two-way mixed lymphocyte reaction (MLR) assay;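 note: proliferation read as tritiated thymidine incorporation into newly made DNA after an overnight pulse, expressed as percent of control activity, IC50 interpolated per compound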
[3] = system: concanavalin A-induced lymphoblasts (Con A splenocytes); assay: Lymphoblast viability (LbV) assay; details: Con A-stimulated splenocytes (lymphoblasts), MTT
Rift Valley fever virus = details: mouse, in vivo; cited from earlier work
[4] = system: Balb/c splenocytes (resting lymphocytes); assay: Lymphocyte viability (LcV) assay; assay type: cell-based, murine; details: unstimulated Balb/c splenocytes, MTT
Outline: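 Resting Balb/c splenocytes incubated with compounds under MLR-equivalent conditions, then pulsed overnight with MTT; formazan dissolved in isopropanol and absorbance read at 570 nm. Viability expressed as percent of untreated Balb/c control metabolic activity, with LC50 interpolated.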

[5] = 160 μg/kg per injection (highest dose)
[6] = Balb/c + C57B1/6 splenocytes, 96 h, [3H]thymidine
[7] = read-out: two-way mixed lymphocyte reaction (MLR) suppression MLR, IC50, Balb/c + C57B1/6 splenocytes, 96 h, [3H]thymidine

Molecule	alive day 8 ([1]; 0.0016 mg/Kg/day)	body weight change day 5 ([1]; 0.0016 mg/Kg/day)	body weight day 5 (g ± SD) ([1]; 0.0016 mg/Kg/day)	index (spleen wt. treated/spleen wt. syngenetic injection) ([1]; 0.0016 mg/Kg/day)	mean group spleen wt. normalized to day 8 body weight ([1]; 0.0016 mg/Kg/day)	alive day 8 ([1]; 0.016 mg/Kg/day)	body weight change day 5 ([1]; 0.016 mg/Kg/day)	body weight day 5 (g ± SD) ([1]; 0.016 mg/Kg/day)	index (spleen wt. treated/spleen wt. syngenetic injection) ([1]; 0.016 mg/Kg/day)	mean group spleen wt. normalized to day 8 body weight ([1]; 0.016 mg/Kg/day)	alive day 8 ([1]; 0.16 mg/Kg/day)	body weight change day 5 ([1]; 0.16 mg/Kg/day)	body weight day 5 (g ± SD) ([1]; 0.16 mg/Kg/day)	index (spleen wt. treated/spleen wt. syngenetic injection) ([1]; 0.16 mg/Kg/day)	mean group spleen wt. normalized to day 8 body weight ([1]; 0.16 mg/Kg/day)	two-way mixed lymphocyte reaction (MLR) suppression MLR, IC50 [2, 6]	IC50 [2, 7]	cytotoxicity to lymphocytes LbV, LC50 [3]	cytoxicity to lymphocytes LcV, LC50 [4]	cytoxicity to lymphocytes LcV, LC50 ([4]; highest concentration 10 μg/mL)	further results
CC[C@H](C)[C@H]1NC(=O)[C@@H](NC(=O)[C@@H](CC(C)C)N(C)C(=O)[C@@H]2CCCN2C(=O)C(C)O)[C@@H](C)OC(=O)[C@H](Cc2ccc(OC)cc2)N(C)C(=O)[C@@H]2CCCN2C(=O)[C@H](CC(C)C)NC(=O)[C@@H](C)C(=O)[C@H](C(C)C)OC(=O)C[C@@H]1O (stereo partly drawn) [Compound 1, didemnin B]	100%	1.0 g	18.4 ± 0.8 g	1.91	6.1	100%	1.0 g	18.2 ± 0.7 g	1.33	4.2	100%	-1.4 g	15.6 ± 1.6 g	1.24	4.0	0.46 ng/mL	0.42 nM	0.6 nM	6340 nM	7.00 µg/mL	suppression of allogeneically induced splenomegaly response compared to control ([1]; 1.6 μg/kg per injection): not effective; suppression of allogeneically induced splenomegaly response compared to control ([1]; 16 μg/kg per injection): 53%; suppression of allogeneically induced splenomegaly response compared to control ([1]; 160 μg/kg per injection): 66%; toxicity to the animals [1, 5]: neither was toxic; protected Rift Valley fever virus-infected mice (Rift Valley fever virus): 90%
CC[C@H](C)[C@H]1NC(=O)[C@@H](NC(=O)[C@@H](CC(C)C)N(C)C(=O)[C@@H]2CCCN2C(=O)[C@H](C)OC(=O)[C@@H]2CCC(=O)N2)[C@@H](C)OC(=O)[C@H](Cc2ccc(OC)cc2)N(C)C(=O)[C@@H]2CCCN2C(=O)[C@H](CC(C)C)NC(=O)[C@@H](C)C(=O)[C@H](C(C)C)OC(=O)C[C@@H]1O [Compound 37, O-Pyroglutamyldidemnin B] ([pGlu][Lac]P[dNMeL]T[X1]LP[NMeY](Me); ester 5-C)	100%	0.4 g	17.4 ± 1.7 g	1.63	5.2	100%	0.8 g	17.2 ± 1.5 g	1.76	5.6	100%	-0.6 g	15.2 ± 1.2 g	1.32	4.2	0.007 ng/mL	0.0053 nM	0.079 nM	> 8200 nM	> 10 µg/mL	suppression of allogeneically induced splenomegaly response compared to control ([1]; 160 μg/kg per injection): 54%; toxicity to the animals [1, 5]: neither was toxic; IC50 ([2]; read-out: MLR IC50): 0.0053 nM
CC[C@H](C)[C@H]1NC(=O)[C@@H](NC(=O)[C@@H](CC(C)C)N(C)C(=O)[C@@H]2CCCN2C(=O)[C@H](C)OC(=O)[C@H](CCC(N)=O)NC(=O)[C@@H]2CCC(=O)N2)[C@@H](C)OC(=O)[C@H](Cc2ccc(OC)cc2)N(C)C(=O)[C@@H]2CCCN2C(=O)[C@H](CC(C)C)NC(=O)[C@@H](C)C(=O)[C@H](C(C)C)OC(=O)C[C@@H]1O [Compound 38, Didemnin M] ([pGlu]Q[Lac]P[dNMeL]T[X1]LP[NMeY](Me); ester 6-C)	100%	1.4 g	17.2 ± 1.2 g	1.27	4.1	100%	-0.2 g	17.8 ± 0.7 g	1.38	4.4	100%	1.0 g	16.4 ± 1.0 g	1.54	4.9	0.001 ng/mL		0.25 nM	> 7410 nM	> 10 µg/mL	suppression of allogeneically induced splenomegaly response compared to control ([1]; 1.6 μg/kg per injection): 61%; toxicity to the animals ([1]; 16 and 160 μg/kg): not toxic
Didemnin Y [Compound 42]																0.89 ng/mL	0.5 nM	1.1 nM	> 5570 nM	> 10 µg/mL	
[Anhydro1st^2 ][Phth-Ala^9 ]DB [Compound 9]																0.30 ng/mL	0.25 nM	1.9 nM	> 8200 nM	> 10 µg/mL	
[Phth-Ala^9 ]DB [Compound 8]																0.49 ng/mL	0.39 nM	0.81 nM	> 8100 nM	> 10 µg/mL	
